# Reference: US20210186977A1, “MEDICAL USES” (priority 2018, published 2021)
# Test system: Herpes Zoster (varicella zoster virus)
# Experiment: Valaciclovir prophylaxis against HZ activation in patients receiving CellProtect infusions
# Type: in vivo, human
# Details: 500 mg twice daily for 6 months following infusions; patients 110 and 111; within 12 months following prophylaxis
# Experimental: Since the development of HZ was clearly associated with the NK cell infusions in the first four patients the last two patients (110 and 111) were treated with high dose valaciclovir, 500 mg twice daily for 6 months following the infusions.
compound,measurement,value
CC(C)[C@H](N)C(=O)OCCOCn1cnc2c(=O)[nH]c(N)nc21 [valaciclovir],Signs of HZ activation,did not show any signs of HZ activation
